Article PMC6979384, “Characterization of the plant homeodomain (PHD) reader family for their histone tail interactions” (Epigenetics & Chromatin, 2020)

Assays:
Assay in all cases: Histone peptide microarray
Assay type in all cases: binding, human
AIRE (PP) = conditions: sheet "Array Heatmap"; GST-tagged AIRE (PP); arrays performed twice, total replicate number n = 4
Summary of the method: (§1)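 A peptide microarray holding 293 synthetic histone peptides with individual or combinatorial modifications was probed with each GST-PHD protein at 0.5 μM. Values represent mean intensity (±SD) from four replicates.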

BAZ2B = conditions: sheet "Array Heatmap"; GST-tagged BAZ2B; arrays performed twice, total replicate number n = 4
Summary of the method: as §1

BPTF (PB) = conditions: sheet "Array Heatmap"; GST-tagged BPTF (PB); arrays performed twice, total replicate number n = 4
Summary of the method: as §1

CHD4 (PPCC) = conditions: sheet "Array Heatmap"; GST-tagged CHD4 (PPCC); arrays performed twice, total replicate number n = 4
Summary of the method: as §1

CHD5 (PCC) = conditions: sheet "Array Heatmap"; GST-tagged CHD5 (PCC); arrays performed twice, total replicate number n = 4
Summary of the method: as §1

CHD5 (PPCC) = conditions: sheet "Array Heatmap"; GST-tagged CHD5 (PPCC); arrays performed twice, total replicate number n = 4
Summary of the method: as §1

DIDO1 = conditions: sheet "Array Heatmap"; GST-tagged DIDO1; arrays performed twice, total replicate number n = 4
Summary of the method: as §1

DPF2 (PPC2W2) = conditions: sheet "Array Heatmap"; GST-tagged DPF2 (PPC2W2); arrays performed twice, total replicate number n = 4
Summary of the method: as §1

ING1 = conditions: sheet "Array Heatmap"; GST-tagged ING1; arrays performed twice, total replicate number n = 4
Summary of the method: as §1

ING2 = conditions: sheet "Array Heatmap"; GST-tagged ING2; arrays performed twice, total replicate number n = 4
Summary of the method: as §1

ING3 = conditions: sheet "Array Heatmap"; GST-tagged ING3; arrays performed twice, total replicate number n = 4
Summary of the method: as §1

ING4 = conditions: sheet "Array Heatmap"; GST-tagged ING4; arrays performed twice, total replicate number n = 4
Summary of the method: as §1

ING5 = conditions: sheet "Array Heatmap"; GST-tagged ING5; arrays performed twice, total replicate number n = 4
Summary of the method: as §1

KDM4C (TTP) = conditions: sheet "Array Heatmap"; GST-tagged KDM4C (TTP); arrays performed twice, total replicate number n = 4
Summary of the method: as §1

KDM5A (1) = conditions: sheet "Array Heatmap"; GST-tagged KDM5A (1); arrays performed twice, total replicate number n = 4
Summary of the method: as §1

KDM5A (3) = conditions: sheet "Array Heatmap"; GST-tagged KDM5A (3); arrays performed twice, total replicate number n = 4
Summary of the method: as §1

KDM5B (1) = conditions: sheet "Array Heatmap"; GST-tagged KDM5B (1); arrays performed twice, total replicate number n = 4
Summary of the method: as §1

KDM5B (3) = conditions: sheet "Array Heatmap"; GST-tagged KDM5B (3); arrays performed twice, total replicate number n = 4
Summary of the method: as §1

KDM7A = conditions: sheet "Array Heatmap"; GST-tagged KDM7A; arrays performed twice, total replicate number n = 4
Summary of the method: as §1

MLL5 = conditions: sheet "Array Heatmap"; GST-tagged MLL5; arrays performed twice, total replicate number n = 4
Summary of the method: as §1

MORC3 (CW) = conditions: sheet "Array Heatmap"; GST-tagged MORC3 (CW); arrays performed twice, total replicate number n = 4
Summary of the method: as §1

PHF13 = conditions: sheet "Array Heatmap"; GST-tagged PHF13; arrays performed twice, total replicate number n = 4
Summary of the method: as §1

PHF21A = conditions: sheet "Array Heatmap"; GST-tagged PHF21A; arrays performed twice, total replicate number n = 4
Summary of the method: as §1

PHF23 = conditions: sheet "Array Heatmap"; GST-tagged PHF23; arrays performed twice, total replicate number n = 4
Summary of the method: as §1

PHF2 = conditions: sheet "Array Heatmap"; GST-tagged PHF2; arrays performed twice, total replicate number n = 4
Summary of the method: as §1

PHF8 = conditions: sheet "Array Heatmap"; GST-tagged PHF8; arrays performed twice, total replicate number n = 4
Summary of the method: as §1

PHRF1 (RP) = conditions: sheet "Array Heatmap"; GST-tagged PHRF1 (RP); arrays performed twice, total replicate number n = 4
Summary of the method: as §1

RAG2 = conditions: sheet "Array Heatmap"; GST-tagged RAG2; arrays performed twice, total replicate number n = 4
Summary of the method: as §1

SP140L = conditions: sheet "Array Heatmap"; GST-tagged SP140L; arrays performed twice, total replicate number n = 4
Summary of the method: as §1

TAF3 = conditions: sheet "Array Heatmap"; GST-tagged TAF3; arrays performed twice, total replicate number n = 4
Summary of the method: as §1

TRIM66 (PB) = conditions: sheet "Array Heatmap"; GST-tagged TRIM66 (PB); arrays performed twice, total replicate number n = 4
Summary of the method: as §1

H3R8me2s + K9me2: H3 1-20
Array Heatmap signal, AIRE (PP) (AIRE (PP)): 0.5603
Array Heatmap signal, BAZ2B (BAZ2B): 0.5059
Array Heatmap signal, BPTF (PB) (BPTF (PB)): 0.3651
Array Heatmap signal, CHD4 (PPCC) (CHD4 (PPCC)): 0.5754
Array Heatmap signal, CHD5 (PCC) (CHD5 (PCC)): 0.7949
Array Heatmap signal, CHD5 (PPCC) (CHD5 (PPCC)): 0.5952
Array Heatmap signal, DIDO1 (DIDO1): 0.6168
Array Heatmap signal, DPF2 (PPC2W2) (DPF2 (PPC2W2)): 0.6724
Array Heatmap signal, ING1 (ING1): 0.5182
Array Heatmap signal, ING2 (ING2): 0.6129
Array Heatmap signal, ING3 (ING3): 0.4823
Array Heatmap signal, ING4 (ING4): 0.4841
Array Heatmap signal, ING5 (ING5): 0.3835
Array Heatmap signal, KDM4C (TTP) (KDM4C (TTP)): 0.5379
Array Heatmap signal, KDM5A (1) (KDM5A (1)): 0.5094
Array Heatmap signal, KDM5A (3) (KDM5A (3)): 0.4844
Array Heatmap signal, KDM5B (1) (KDM5B (1)): 0.6818
Array Heatmap signal, KDM5B (3) (KDM5B (3)): 0.5187
Array Heatmap signal, KDM7A (KDM7A): 0.4179
Array Heatmap signal, MLL5 (MLL5): 0.5188
Array Heatmap signal, MORC3 (CW) (MORC3 (CW)): 0.398
Array Heatmap signal, PHF13 (PHF13): 0.6345
Array Heatmap signal, PHF21A (PHF21A): 0.4814
Array Heatmap signal, PHF23 (PHF23): 0.5163
Array Heatmap signal, PHF2 (PHF2): 0.4235
Array Heatmap signal, PHF8 (PHF8): 0.3655
Array Heatmap signal, PHRF1 (RP) (PHRF1 (RP)): 0.5504
Array Heatmap signal, RAG2 (RAG2): 0.2593
Array Heatmap signal, SP140L (SP140L): 0.3733
Array Heatmap signal, TAF3 (TAF3): 0.2872
Array Heatmap signal, TRIM66 (PB) (TRIM66 (PB)): 0.5924

H3R8me2s + K9me3: H3 1-20
Array Heatmap signal, AIRE (PP) (AIRE (PP)): 0.6619
Array Heatmap signal, BAZ2B (BAZ2B): 0.5401
Array Heatmap signal, BPTF (PB) (BPTF (PB)): 0.4039
Array Heatmap signal, CHD4 (PPCC) (CHD4 (PPCC)): 0.6275
Array Heatmap signal, CHD5 (PCC) (CHD5 (PCC)): 0.8709
Array Heatmap signal, CHD5 (PPCC) (CHD5 (PPCC)): 0.6469
Array Heatmap signal, DIDO1 (DIDO1): 0.7617
Array Heatmap signal, DPF2 (PPC2W2) (DPF2 (PPC2W2)): 0.784
Array Heatmap signal, ING1 (ING1): 0.6071
Array Heatmap signal, ING2 (ING2): 0.6159
Array Heatmap signal, ING3 (ING3): 0.5417
Array Heatmap signal, ING4 (ING4): 0.5372
Array Heatmap signal, ING5 (ING5): 0.4272
Array Heatmap signal, KDM4C (TTP) (KDM4C (TTP)): 0.5668
Array Heatmap signal, KDM5A (1) (KDM5A (1)): 0.5383
Array Heatmap signal, KDM5A (3) (KDM5A (3)): 0.5266
Array Heatmap signal, KDM5B (1) (KDM5B (1)): 0.6697
Array Heatmap signal, KDM5B (3) (KDM5B (3)): 0.5509
Array Heatmap signal, KDM7A (KDM7A): 0.3933
Array Heatmap signal, MLL5 (MLL5): 0.5932
Array Heatmap signal, MORC3 (CW) (MORC3 (CW)): 0.4796
Array Heatmap signal, PHF13 (PHF13): 0.7048
Array Heatmap signal, PHF21A (PHF21A): 0.5424
Array Heatmap signal, PHF23 (PHF23): 0.594
Array Heatmap signal, PHF2 (PHF2): 0.5404
Array Heatmap signal, PHF8 (PHF8): 0.4276
Array Heatmap signal, PHRF1 (RP) (PHRF1 (RP)): 0.5937
Array Heatmap signal, RAG2 (RAG2): 0.2769
Array Heatmap signal, SP140L (SP140L): 0.3989
Array Heatmap signal, TAF3 (TAF3): 0.3134
Array Heatmap signal, TRIM66 (PB) (TRIM66 (PB)): 0.7482
